Data from patent US20110152223A1, “THERAPEUTIC AGENT FOR ANCA-RELATED VASCULITIS” (priority 2008, published 2011).

Key:
Assay type in all cases: in vivo
[1] = test system: SCG/Kj mice; test: Action of EPA on the survival rate of SCG/Kj mice as an ANCA model; conditions: SCG/Kj mice fed 5% diet in a free-feeding state from seven weeks old
From the text: SCG/Kj mice (seven weeks old) as a spontaneous ANCA vasculitis/nephritis model (Nippon Kayaku Co., Ltd.) were divided into three groups comprising 6 or 7 animals each, and fed on (1) fish meal-free feed F1 (Funakoshi Co., Ltd.) (control group), (2) 5% corn oil diet (manufactured by Sigma Corporation) (corn oil group), or (3) 5% EPA-E diet (diet F1 with 5% EPA-E added thereto) (EPA group) in a free-feeding state so as to observe the survival rate.

[2] = test system: PD-1; test: mRNA expression level of PD-1 in the kidneys of SCG/Kj mice (quantitative real-time PCR); conditions: 5% EPA-E diet from seven weeks old until completed 11th week of age
Description: (§1) SCG/Kj mice (seven weeks old) were divided into three groups comprising 6 or 7 animals each, and fed under the same conditions as Example 1 until they completed their 11th week of age. The mRNA expression levels of PD-1, PD-L1, PD-L2, Foxp3, and CTLA4 in the kidneys, lungs and spleens of the mice were evaluated.
(§2) A frozen kidney was homogenized in a TRIzol® reagent (Invitrogen, Carlsbad, Calif.). Total RNA was prepared from the homogenate, and purified using PureLink Micro-to-Midi Total RNA Purification System (Invitrogen). SuperScript™ III first-strand synthesis system (Invitrogen) was used to prepare cDNA from the purified total RNA, and quantitative real-time PCR was conducted with ABI Prism® 7000 (Applied Biosystems, Foster City, Calif.). For primers and probes for PCR, TaqMan® gene expression assays (Applied Biosystems) were used.

[3] = test system: MPO-ANCA; test: MPO-ANCA in the serum of SCG/Kj mice by ELISA (ANCA production); conditions: 5% EPA-E diet from seven weeks old until completed 11th week of age, absorbance at 405 nm
Description: SCG/Kj mice (seven weeks old) were divided into three groups comprising 6 or 7 animals each, and fed under the same conditions as Example 1 until they completed their 11th week of age. Groups of B6 mice (two animals) and of SCG/Kj mice (15 weeks old; three animals) were further provided, and the five groups were subjected to the absorbance measurement for MPO-ANCA in the serum by an ELISA technique.
The MPO-ANCA titer was measured by following a method having already been reported (Ishida-Okawara, A., Ito-Ihara, T., Muso, E. et al., Neutrophil contribution to the crescentic glomerulonephritis in SCG/Kj mice, Nephrol. Dial. Transplant. 2004; 19: 1708-1715). To put it briefly: Recombinant mouse MPO was coated onto an ELISA plate (Toyoshima Co., Tokyo, Japan) at 4° C. overnight. The plate was blocked with 1% bovine serum albumin (BSA) (Sigma), then incubated at room temperature for 1.5 hours in the presence of mouse serum (50-fold dilution).
Bound MPO-ANCA was detected after an incubation for two hours in the presence of an alkaline phosphatase-labeled anti-mouse IgG antibody (Cappel). Subsequently, the secondary antibody as bound was quantified by measuring the absorbance at 405 nm after an incubation in the presence of 1 mg/ml of p-nitrophenyl phosphate (Sigma).

[4] = test system: Foxp3; test: mRNA expression level of Foxp3 in the kidneys of SCG/Kj mice (quantitative real-time PCR); conditions: 5% EPA-E diet from seven weeks old until completed 11th week of age
Description: as §1, §2

[5] = test system: PD-L1; test: mRNA expression level of PD-L1 in the kidneys of SCG/Kj mice (quantitative real-time PCR); conditions: 5% EPA-E diet from seven weeks old until completed 11th week of age
Description: as §1, §2

[6] = test system: PD-L2; test: mRNA expression level of PD-L2 in the kidneys of SCG/Kj mice (quantitative real-time PCR); conditions: 5% EPA-E diet from seven weeks old until completed 11th week of age
Description: as §1, §2

[7] = test system: CTLA4; test: mRNA expression level of CTLA4 in the kidneys of SCG/Kj mice (quantitative real-time PCR); conditions: 5% EPA-E diet from seven weeks old until completed 11th week of age
Description: as §1, §2

CC/C=C\C/C=C\C/C=C\C/C=C\C/C=C\CCCC(=O)OCC [EPA-E, ethyl icosapentate ester]
age at which the survival rate began to decrease [1]: about 15 weeks old | survival-prolonging effect [1]: has a survival-prolonging effect | PD-1 mRNA expression level in the kidney as compared with the control group [2]: likely to be increased | ANCA levels relative to normal mice (B6) [3]: comparable to those of the normal mice (B6) | ANCA production as compared with the control group and the corn oil group [3]: evidently suppressed | Foxp3 mRNA expression level in the kidney as compared with the control group [4]: significantly increased | PD-L1 mRNA expression level in the kidney as compared with the control group [5]: likely to be increased | PD-L2 mRNA expression level in the kidney as compared with the control group [6]: likely to be increased | CTLA4 mRNA expression level in the kidney as compared with the control group [7]: likely to be increased
